Data published in ChEMBL document CHEMBL3600349 (Bioorg Med Chem Lett, 2015).
pIC50: −log10 of the molar value.

Columns and labels:
[1] = Half life in rat liver microsomes; type: ADME
[2] = target: Melanin-concentrating hormone receptor 1 (Homo sapiens, UniProt Q99705); test: Displacement of [125I]-MCH from human MCH-R1 expressed in CHO/Galpha16 cells after 60 mins by scintillation counting; type: cell-based
[3] = Intrinsic clearance in human hepatocytes assessed per 10^6 cells; type: ADME, cell-based, Hepatocyte; details: read-out: CLH
[4] = Lipophilicity, log P of the compound by HPLC analysis; type: physicochemical
[5] = test system: U-937; test: Toxicity in human U937 cells assessed as first effect concentration for phospholipidosis by nile red uptake assay; type: cell-based
[6] = target: hERG (KCNH2) (Homo sapiens, UniProt Q12809); test: Inhibition of human ERG at 10 uM by patch clamp assay
[7] = species: Homo sapiens; test: Selectivity ratio, ratio of 5HT2A receptor (unknown origin) to human MCH-R1
[8] = species: Homo sapiens; test: Selectivity ratio, ratio of muscarinic M1 receptor (unknown origin) to human MCH-R1
[9] = test system: Rattus norvegicus; test: Antiobesity activity in diet-induced obese Wistar rat model assessed as reduction of body weight at 5 mg/kg, po qd after 4 weeks; type: functional; parameters: scale not given: the % may be the effect or the level left

Sequence of Melanin-concentrating hormone receptor 1 (Q99705 whole entry): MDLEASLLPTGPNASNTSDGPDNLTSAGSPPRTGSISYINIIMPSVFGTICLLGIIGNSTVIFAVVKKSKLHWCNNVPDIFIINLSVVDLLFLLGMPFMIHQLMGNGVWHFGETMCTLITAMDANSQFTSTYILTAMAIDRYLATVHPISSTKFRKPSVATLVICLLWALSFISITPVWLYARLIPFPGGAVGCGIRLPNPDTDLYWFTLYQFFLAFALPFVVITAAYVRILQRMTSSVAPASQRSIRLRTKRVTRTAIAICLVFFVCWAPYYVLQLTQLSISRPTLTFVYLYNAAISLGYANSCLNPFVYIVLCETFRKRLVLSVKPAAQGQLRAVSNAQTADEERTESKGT
Sequence of hERG (KCNH2) (Q12809 whole entry): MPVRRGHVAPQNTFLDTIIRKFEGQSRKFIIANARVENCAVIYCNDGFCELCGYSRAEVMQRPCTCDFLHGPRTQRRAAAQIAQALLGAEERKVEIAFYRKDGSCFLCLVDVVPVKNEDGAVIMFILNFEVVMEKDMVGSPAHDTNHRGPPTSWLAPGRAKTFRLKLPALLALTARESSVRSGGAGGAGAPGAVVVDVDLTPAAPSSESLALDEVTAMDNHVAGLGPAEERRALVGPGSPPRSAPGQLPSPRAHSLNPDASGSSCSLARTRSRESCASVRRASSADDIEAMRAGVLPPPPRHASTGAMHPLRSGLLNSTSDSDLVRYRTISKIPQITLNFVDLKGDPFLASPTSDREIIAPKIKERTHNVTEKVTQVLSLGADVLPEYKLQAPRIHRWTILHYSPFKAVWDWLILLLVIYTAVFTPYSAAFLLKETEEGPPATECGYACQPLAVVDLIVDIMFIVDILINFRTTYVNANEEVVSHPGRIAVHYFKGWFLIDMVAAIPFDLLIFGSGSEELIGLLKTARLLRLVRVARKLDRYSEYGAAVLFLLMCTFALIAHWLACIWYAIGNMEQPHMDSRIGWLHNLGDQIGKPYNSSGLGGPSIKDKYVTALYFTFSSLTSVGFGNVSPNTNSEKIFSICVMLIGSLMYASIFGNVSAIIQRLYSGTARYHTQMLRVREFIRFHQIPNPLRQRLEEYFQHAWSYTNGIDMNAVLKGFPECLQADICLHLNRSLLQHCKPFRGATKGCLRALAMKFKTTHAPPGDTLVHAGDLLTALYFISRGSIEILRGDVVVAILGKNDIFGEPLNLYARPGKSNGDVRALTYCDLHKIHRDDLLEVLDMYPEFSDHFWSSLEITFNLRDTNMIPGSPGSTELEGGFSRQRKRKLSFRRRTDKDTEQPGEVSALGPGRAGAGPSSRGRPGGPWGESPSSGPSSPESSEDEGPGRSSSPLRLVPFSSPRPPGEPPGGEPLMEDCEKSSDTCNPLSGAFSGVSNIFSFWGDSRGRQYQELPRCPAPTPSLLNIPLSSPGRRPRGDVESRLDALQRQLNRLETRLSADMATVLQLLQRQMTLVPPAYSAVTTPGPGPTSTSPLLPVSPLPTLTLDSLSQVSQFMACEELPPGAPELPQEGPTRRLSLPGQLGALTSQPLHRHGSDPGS

Row | SMILES | half-life [1] [min] | pIC50 [2] | hepatocyte CLint [3] [µL/min/1e6 cells] | logP [4] | Activity [5] [µM] | inhibition at 10 µM [6] [%] | Ratio [7] | Ratio [8] | Activity [9] [%]
1 | CN(C)Cc1ccc(C(=O)Cn2ncc(OCc3ccccc3)cc2=O)cc1 | 6 | 8.00 | 17 | 3.6 |  |  |  |  | 
2 | CN(C)Cc1ccc(C(=O)Cn2ncc(OCc3ccc(Cl)cn3)cc2=O)cc1 | 14 | 7.60 |  | 2.9 | 50 | 39 |  |  | 
3 | CN(C)Cc1ccc(C(=O)Cn2ccc(OCc3ccccc3)cc2=O)cc1 | 23 | 7.89 | 24 | 3 | 100 | 63 | > 200 | > 200 | 
4 | CN(C)Cc1ccc(C(=O)Cn2ccc(OCc3ccc(Br)cn3)cc2=O)cc1 | 32 | 7.55 | 66 | 2.5 |  |  |  |  | 
5 | CN(C)Cc1ccc(C(=O)Cn2ccc(OCc3ccc(Cl)cn3)cc2=O)cc1 | > 45 | 7.39 | 69 | 2.3 |  |  |  |  | 
6 | Cc1cc(CN(C)C)ccc1C(=O)Cn1ccc(OCc2ccccc2)cc1=O | 24 |  | 4 | 3.3 | 50 | 67 | > 200 | > 200 | 
7 | CN(C)Cc1ccc(CCn2ccc(OCc3ccccc3)cc2=O)cc1 | 5 | 8.15 |  | 3.2 | 100 |  |  |  | 
8 | CC(C)CC(N(C)C)C1(c2ccc(Cl)cc2)CCC1 (configuration not stated) [SIBUTRAMINE] |  |  |  |  |  |  |  |  | 10.9
